Experimental data reported in patent US5801260A, “Carbonothioate phospholipid analogs as substrate of phospholipases and lipases” (priority 1995, dated 1998).

Columns and labels:
[1] = biological target: T1, cobra venom phospholipase A2 (Naja atra, UniProt P00598); experiment: Inactivation of phospholipase A2 by an irreversible inhibitor, carbonothioate assay of residual activity; type: biochemical; conditions: enzyme preincubated with 100 μM inhibitor at 40° C.; substrate 1-decanoyl-2-octylcarbonothioyl-sn-glycero-3-phosphocholine 0.5 mM, 4.24 mM Triton X-100; FIG. 9
T1 construct: cobra venom phospholipase A2 (Naja naja atra); from tissue; host or cells: venom of Naja naja atra
Method: (§1) (b) Method: The desired amount of carbonothioate phospholipid in methylene chloride was evaporated to dryness under a stream of nitrogen. An appropriate volume of buffer A is added. This solution was sonicated in a bath sonicator to clearness. The assay was carried out at 40° C. A cuvette, containing 0.3 mL of assay mixture and 5 μL of DTNB was placed in the compartment of a spectrophotometer thermostated at 40° C. After equilibration of the substrate for 2 min at 40° C., a stable baseline was recorded for 150 sec. To initiate the reaction, cobra venom phospholipase A2 (Naja naja atra) (5 μL containing 125 ng protein in buffer B) was added to the cuvette and the reaction was recorded spectrophotometrically at 412 nm for 150 sec. The phospholipase activity is calculated using the extinction coefficient of 12,000 M^-1 cm^-1. Between each run, the cuvette is rinsed with Clorox, water and acetone.
Method: The appropriate volume of carbonothioate phospholipid in methylene chloride was dried under a stream of nitrogen. To prepare mixed micelles, the appropriate volume of buffer C was added, and the volume was brought to the final volume with buffer B. This solution was bath-sonicated to obtain a clear solution. The enzymatic activity was determined similarly to Example 5 except that 500 ng enzyme was used. […]

[2] = biological target: T1, cobra venom phospholipase A2; experiment: Inhibition of phospholipase A2 by a reversible inhibitor, carbonothioate assay; type: biochemical; conditions: substrate 1-decanoyl-2-octylcarbonothioyl-sn-glycero-3-phosphocholine 0.5 mM, standard buffer with 4.24 mM Triton X-100; inhibitor 1 μM to 20 μM; FIG. 8
Method: as §1
Method: The appropriate volume of carbonothioate phospholipid in methylene chloride was dried under a stream of nitrogen. […] The enzymatic activity was determined similarly to Example 5 except that 500 ng enzyme was used.
A solution of 1-decanoyl-2-octylcarbonothioyl-sn-glycero-3-phosphocholine (1.0 mM) in buffer C was prepared as in Example 6. […] The enzymatic activity in the presence of the amide analog was determined as in Example 6.

T1 sequence (P00598 28-146 limits assumed): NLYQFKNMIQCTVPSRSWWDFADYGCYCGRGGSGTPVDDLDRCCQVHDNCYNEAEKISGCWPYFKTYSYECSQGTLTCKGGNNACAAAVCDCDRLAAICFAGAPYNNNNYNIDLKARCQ

Structure (SMILES) | inhibition of cobra venom phospholipase A2 as followed by the carbonothioate assay [1] | inhibition of cobra venom phospholipase A2 as determined by the carbonothioate assay [2]
CCCCCCCCCC(=O)OCC(COP(=O)([O-])OCC[N+](C)(C)C)OC(=O)CC(C)(C)CC(=O)Oc1ccc([N+](=O)[O-])cc1 (centres unmarked) [irreversible inhibitor] | time-dependent inhibition | –
CCCCCCCCCCCCCCCCSC[C@H](COP(=O)([O-])OCC[N+](C)(C)C)NC(=O)CCCCCCCCCCCCCCC [amide substrate analogs, 1-hexadecyl-thio-2-hexadecanoylamino-1,2-dideoxy-sn-glycero-3-phosphocholine] | – | inhibition
